Results published in US20110264139A1, “SUTURES AND FIBROSING AGENTS” (Angiotech Pharmaceuticals, Inc., priority 2006, published 2011).

Key:
Assay in all cases: MIC assay, microtitre broth dilution
Format in all cases: cell-based
[1] = tested on: P. aeruginosa PAE/K799 H187; details: P. aeruginosa PAE/K799 H187 wt, Gram −; Mueller Hinton broth, 37° C., 24 h
Procedure: (§1) MIC assays were conducted essentially as described by Amsterdam, D. 1996, “Susceptibility testing of antimicrobials in liquid media,” p. 52-111. In Loman, V., ed. Antibiotics in Laboratory Medicine, 4th ed. Williams and Wilkins, Baltimore, Md. Briefly, a variety of compounds were tested for antibacterial activity against isolates of P. aeruginosa, K. pneumoniae , E. coli, S. epidermidus, and S. aureus in the MIC (minimum inhibitory concentration) assay under aerobic conditions using 96 well polystyrene microtitre plates (Falcon 1177), and Mueller Hinton broth at 37° C. incubated for 24 h. (MHB was used for most testing except C721 (S. pyogenes), which used Todd Hewitt broth, and Haemophilus influenzae, which used Haemophilus test medium (HTM)). Tests were conducted in triplicate.

E. Coli UB1005 C498 = E. Coli UB1005 C498 wt, Gram −; Mueller Hinton broth, 37° C., 24 h
Procedure: as §1

S. pyogenes C721 = S. pyogenes C721 wt, Gram +; Todd Hewitt broth, 37° C., 24 h
Procedure: as §1

[2] = tested on: K. pneumoniae ATCC13883 C238; details: K. pneumoniae ATCC13883 C238 wt, Gram −; Mueller Hinton broth, 37° C., 24 h
Procedure: as §1

S. epidermidis C621 = S. epidermidis C621 wt, Gram +; Mueller Hinton broth, 37° C., 24 h
Procedure: as §1

S. aureus ATCC25923 C622 = S. aureus ATCC25923 C622 wt, Gram +; Mueller Hinton broth, 37° C., 24 h
Procedure: as §1

Sc1ncc2[nH]cnc2n1 [2-mercaptopurine]
Minimum inhibitory concentration [1]: N | Minimum inhibitory concentration (E. Coli UB1005 C498): N | Minimum inhibitory concentration (S. pyogenes C721): N | Minimum inhibitory concentration [2]: N | Minimum inhibitory concentration (S. epidermidis C621): N | Minimum inhibitory concentration (S. aureus ATCC25923 C622): N

O=c1[nH]cc(F)c(=O)[nH]1 [5-fluorouracil]
Minimum inhibitory concentration [1]: 10^−5 molar | Minimum inhibitory concentration (E. Coli UB1005 C498): 10^−6 molar | Minimum inhibitory concentration (S. pyogenes C721): 10^−4 molar | Minimum inhibitory concentration [2]: 10^−6 molar | Minimum inhibitory concentration (S. epidermidis C621): 10^−7 molar | Minimum inhibitory concentration (S. aureus ATCC25923 C622): 10^−7 molar

Sc1ncnc2nc[nH]c12 [6-mercaptopurine]
Minimum inhibitory concentration [1]: N | Minimum inhibitory concentration (E. Coli UB1005 C498): N | Minimum inhibitory concentration (S. pyogenes C721): N | Minimum inhibitory concentration [2]: N | Minimum inhibitory concentration (S. epidermidis C621): N | Minimum inhibitory concentration (S. aureus ATCC25923 C622): N

Nc1ccn([C@@H]2O[C@H](CO)[C@@H](O)[C@@H]2O)c(=O)n1 [Cytarabine]
Minimum inhibitory concentration [1]: N | Minimum inhibitory concentration (E. Coli UB1005 C498): N | Minimum inhibitory concentration (S. pyogenes C721): N | Minimum inhibitory concentration [2]: N | Minimum inhibitory concentration (S. epidermidis C621): N | Minimum inhibitory concentration (S. aureus ATCC25923 C622): N

CC[C@@]1(O)C(=O)OCc2c1cc1n(c2=O)Cc2cc3ccccc3nc2-1 [camptothecin]
Minimum inhibitory concentration [1]: N | Minimum inhibitory concentration (E. Coli UB1005 C498): N | Minimum inhibitory concentration (S. pyogenes C721): N | Minimum inhibitory concentration [2]: N | Minimum inhibitory concentration (S. epidermidis C621): 10^−4 molar | Minimum inhibitory concentration (S. aureus ATCC25923 C622): N

COc1cccc2c1C(=O)c1c(O)c3c(c(O)c1C2=O)C[C@@](O)(C(=O)CO)C[C@@H]3O[C@H]1C[C@H](N)[C@H](O)[C@H](C)O1 [doxorubicin]
Minimum inhibitory concentration [1]: 10^−5 molar | Minimum inhibitory concentration (E. Coli UB1005 C498): 10^−4 molar | Minimum inhibitory concentration (S. pyogenes C721): 10^−7 molar | Minimum inhibitory concentration [2]: 10^−6 molar | Minimum inhibitory concentration (S. epidermidis C621): 10^−6 molar | Minimum inhibitory concentration (S. aureus ATCC25923 C622): 10^−5 molar

COc1cc([C@@H]2c3cc4c(cc3[C@@H](O[C@@H]3O[C@@H]5CO[C@@H](C)O[C@H]5[C@H](O)[C@H]3O)[C@H]3COC(=O)[C@H]23)OCO4)cc(OC)c1O [etoposide]
Minimum inhibitory concentration [1]: N | Minimum inhibitory concentration (E. Coli UB1005 C498): N | Minimum inhibitory concentration (S. pyogenes C721): 10^−5 molar | Minimum inhibitory concentration [2]: 10^−5 molar | Minimum inhibitory concentration (S. epidermidis C621): 10^−6 molar | Minimum inhibitory concentration (S. aureus ATCC25923 C622): 10^−5 molar

NC(=O)NO [hydroxyurea]
Minimum inhibitory concentration [1]: 10^−4 molar | Minimum inhibitory concentration (E. Coli UB1005 C498): N | Minimum inhibitory concentration (S. pyogenes C721): 10^−4 molar | Minimum inhibitory concentration [2]: N | Minimum inhibitory concentration (S. epidermidis C621): N | Minimum inhibitory concentration (S. aureus ATCC25923 C622): N

CN(Cc1cnc2nc(N)nc(N)c2n1)c1ccc(C(=O)N[C@@H](CCC(=O)O)C(=O)O)cc1 [methotrexate]
Minimum inhibitory concentration [1]: N | Minimum inhibitory concentration (E. Coli UB1005 C498): N | Minimum inhibitory concentration (S. pyogenes C721): 10^−6 molar | Minimum inhibitory concentration [2]: 10^−6 molar | Minimum inhibitory concentration (S. epidermidis C621): N | Minimum inhibitory concentration (S. aureus ATCC25923 C622): 10^−5 molar

O=C1c2c(O)ccc(O)c2C(=O)c2c(NCCNCCO)ccc(NCCNCCO)c21 [mitoxantrone]
Minimum inhibitory concentration [1]: 10^−5 molar | Minimum inhibitory concentration (E. Coli UB1005 C498): 10^−5 molar | Minimum inhibitory concentration (S. pyogenes C721): 10^−6 molar | Minimum inhibitory concentration [2]: 10^−6 molar | Minimum inhibitory concentration (S. epidermidis C621): 10^−5 molar | Minimum inhibitory concentration (S. aureus ATCC25923 C622): 10^−5 molar

Nc1ncnc2c1ccn2[C@@H]1O[C@H](CO)[C@@H](O)[C@H]1O [tubercidin]
Minimum inhibitory concentration [1]: N | Minimum inhibitory concentration (E. Coli UB1005 C498): N | Minimum inhibitory concentration (S. pyogenes C721): N | Minimum inhibitory concentration [2]: N | Minimum inhibitory concentration (S. epidermidis C621): N | Minimum inhibitory concentration (S. aureus ATCC25923 C622): N

cisplatin
Minimum inhibitory concentration [1]: 10^−4 molar | Minimum inhibitory concentration (E. Coli UB1005 C498): N | Minimum inhibitory concentration (S. pyogenes C721): N | Minimum inhibitory concentration [2]: N | Minimum inhibitory concentration (S. epidermidis C621): N | Minimum inhibitory concentration (S. aureus ATCC25923 C622): N
